Data from patent US6218398A, “Nocathiacin antibiotics” (Bristol-Myers Squibb Company, priority 1999, dated 2001).
Values after ≈ are worked out from the molar mass of the structure shown. Like-named read-outs stand apart in the source and are kept apart here. One block for each compound: values may come before it.

Experiments:
[1] = system: Enterococcus faecalis A20688; assay: MIC by conventional serial broth dilution assay; type: cell-based
[2] = system: Enterococcus avium A27456; assay: MIC by conventional serial broth dilution assay; type: cell-based
[3] = system: Haemophilus influenzae/β-lactamase negative A20191; assay: MIC by conventional serial broth dilution assay; type: cell-based; conditions: β-lactamase negative, read-out: MIC
[4] = system: Enterococcus faecalis A27519; assay: MIC by conventional serial broth dilution assay; type: cell-based
[5] = system: Streptococcus pneumoniae/penicillin intermediate A27881; assay: MIC by conventional serial broth dilution assay; type: cell-based
[6] = system: Staphylococcus epidermidis A24548; assay: MIC by conventional serial broth dilution assay; type: cell-based
[7] = system: Streptococcus pneumoniae A9585; assay: MIC by conventional serial broth dilution assay; type: cell-based
[8] = system: Staphylococcus aureus/β-lactamase positive A15090; assay: MIC by conventional serial broth dilution assay; type: cell-based
[9] = system: Enterococcus faecium A24885; assay: MIC by conventional serial broth dilution assay; type: cell-based
Gram-positive bacteria [10] = assay: in vitro activity against Gram-positive bacteria; type: cell-based; conditions: e.g. multiple drug resistant Enterococcus faecium
[11] = system: Staphylococcus haemolyticus A27298; assay: MIC by conventional serial broth dilution assay; type: cell-based
[12] = system: Streptococcus pneumoniae/penicillin resistant A28272; assay: MIC by conventional serial broth dilution assay; type: cell-based
[13] = system: Staphylococcus aureus/homo methicillin resistant A27223; assay: MIC by conventional serial broth dilution assay; type: cell-based
[14] = system: Moraxella catarrhalis/β-lactamase positive A25409; assay: MIC by conventional serial broth dilution assay; type: cell-based
[15] = system: Haemophilus influenzae/β-lactamase negative A20183; assay: MIC by conventional serial broth dilution assay; type: cell-based; conditions: β-lactamase negative, read-out: MIC
[16] = system: Staphylococcus aureus/QC/ATCC#29213 A24407; assay: MIC by conventional serial broth dilution assay; type: cell-based
[17] = system: Moraxella catarrhalis/β-lactamase positive A22344; assay: MIC by conventional serial broth dilution assay; type: cell-based
[18] = system: Haemophilus influenzae/β-lactamase positive A21515; assay: MIC by conventional serial broth dilution assay; type: cell-based; conditions: β-lactamase positive, read-out: MIC
Salmonella/WT A27207 = assay: MIC by conventional serial broth dilution assay; type: cell-based
Escherichia coli A15119 = assay: MIC by conventional serial broth dilution assay; type: cell-based
[19] = system: Escherichia coli/AcrA::Kan A28901; assay: MIC by conventional serial broth dilution assay; type: cell-based
[20] = system: Staphylococcus aureus A9537; assay: MIC by conventional serial broth dilution assay; type: cell-based
Micrococcus luteus A9852 = assay: MIC by conventional serial broth dilution assay; type: cell-based
Escherichia coli A22292 = assay: MIC by conventional serial broth dilution assay; type: cell-based
Bacillus subtilis A9506A = assay: MIC by conventional serial broth dilution assay; type: cell-based
[21] = system: Staphylococcus aureus/hetero methicillin resistant A27218; assay: MIC by conventional serial broth dilution assay; type: cell-based
[22] = system: Streptococcus pyogenes A9604; assay: MIC by conventional serial broth dilution assay; type: cell-based
Salmonella/RE A27208 = assay: MIC by conventional serial broth dilution assay; type: cell-based
[23] = system: Enterococcus faecium/thiostrepton resistant (10 ug/ml) SC15829; assay: MIC by conventional serial broth dilution assay; type: cell-based
[24] = system: Salmonella enteritidis A9531; assay: MIC by conventional serial broth dilution assay; type: cell-based; conditions: Salmonella enterica
[25] = system: Enterococcus faecium strain A28152; assay: antibiotic susceptibility of the MREF strain; type: cell-based; conditions: strain description; source not stated
Gram-positive bacteria [26] = conditions: reported for known thiazolyl peptides; cited from earlier work
[27] = β-lactamase positive, read-out: MIC

MIC ([1]; A20688, + 50% calf serum, read-out: MIC): 0.25 µg/mL
MIC ([1]; A20688, read-out: MIC): 0.03 µg/mL (≈ 0.0237 µM)
MIC ([2]; read-out: MIC): 0.03 µg/mL (≈ 0.0237 µM)
MIC [3]: > 64 µg/mL
MIC ([4]; read-out: MIC): 0.03 µg/mL (≈ 0.0237 µM)
MIC ([5]; penicillin intermediate, read-out: MIC): ≤ 0.002 µg/mL
MIC ([6]; read-out: MIC): 0.007 µg/mL (≈ 0.00553 µM)
MIC ([7]; read-out: MIC): ≤ 0.002 µg/mL
MIC ([8]; + 50% calf serum, read-out: MIC): 0.03 µg/mL
MIC [8, 27]: 0.007 µg/mL (≈ 0.00553 µM)
MIC ([9]; read-out: MIC): 0.03 µg/mL (≈ 0.0237 µM)
MIC ([12]; penicillin resistant, read-out: MIC): ≤ 0.002 µg/mL
MIC ([13]; homo methicillin resistant, read-out: MIC): 0.007 µg/mL (≈ 0.00553 µM)
MIC [14, 27]: 0.06 µg/mL (≈ 0.0474 µM)
MIC [15]: > 64 µg/mL
MIC ([16]; ATCC29213, QC/ATCC#29213, read-out: MIC): 0.007 µg/mL (≈ 0.00553 µM)
MIC [17, 27]: 0.06 µg/mL (≈ 0.0474 µM)
MIC [18]: > 64 µg/mL
Compound: C=C(NC(=O)c1csc(-c2nc3c(cc2O)-c2nc(cs2)C(=O)NC(C(C)O)C(=O)NC(=C(C)OC)c2nc(cs2)C(=O)NC2c4nc(cs4)C(=O)NC(COC(=O)c4c5c6c(cccc6n4O)COC(=O)C(O)C2OC5)c2nc-3cs2)n1)C(N)=O (centres unmarked) [Nocathiacin III]
inhibitory activity against Gram-positive bacteria (Gram-positive bacteria [10]): inhibitory activity at the nanomolar level
MIC ([11]; read-out: MIC): 0.007 µg/mL (≈ 0.00553 µM)

Compound: C=C(NC(=O)c1csc(-c2nc3c(cc2O)-c2nc(cs2)C(=O)NC(C(C)O)C(=O)NC(=C(C)OC)c2nc(cs2)C(=O)NC2c4nc(cs4)C(=O)NC(COC(=O)c4[nH]c5cccc6c5c4COC2C(OC2CC(C)(O)C(N(C)C)C(C)O2)C(=O)OC6)c2nc-3cs2)n1)C(N)=O (centres unmarked) [Nocathiacin II]
MIC ([1]; A20688): 0.5 µg/mL (≈ 0.352 µM)
MIC ([1]; A20688, + 50% calf serum): 0.5 µg/mL
MIC [2]: 0.5 µg/mL (≈ 0.352 µM)
MIC (Salmonella/WT A27207): > 128 µg/mL
MIC [4]: 0.5 µg/mL (≈ 0.352 µM)
MIC [5]: 0.015 µg/mL (≈ 0.0106 µM)
MIC [6]: 0.125 µg/mL (≈ 0.0879 µM)
MIC (Escherichia coli A15119): > 128 µg/mL
MIC [19]: > 128 µg/mL
MIC [20]: 0.06 µg/mL (≈ 0.0422 µM)
MIC [7]: 0.015 µg/mL (≈ 0.0106 µM)
MIC (Micrococcus luteus A9852): 0.125 µg/mL (≈ 0.0879 µM)
MIC ([8]; + 50% calf serum): 0.5 µg/mL
MIC ([8]; β-lactamase positive): 0.5 µg/mL (≈ 0.352 µM)
MIC [9]: 0.5 µg/mL (≈ 0.352 µM)
inhibitory activity against Gram-positive bacteria (Gram-positive bacteria [10]): inhibitory activity at the nanomolar level
MIC (Escherichia coli A22292): > 128 µg/mL
MIC [11]: 0.25 µg/mL (≈ 0.176 µM)
MIC [12]: 0.015 µg/mL (≈ 0.0106 µM)
MIC (Bacillus subtilis A9506A): 0.125 µg/mL (≈ 0.0879 µM)
MIC ([21]; + 50% calf serum): 0.5 µg/mL
MIC ([21]; hetero methicillin resistant): 0.5 µg/mL (≈ 0.352 µM)
MIC [22]: 0.125 µg/mL (≈ 0.0879 µM)
MIC (Salmonella/RE A27208): > 128 µg/mL
MIC ([13]; + 50% calf serum): 0.125 µg/mL
MIC ([13]; homo methicillin resistant): 0.125 µg/mL (≈ 0.0879 µM)
MIC [14]: 0.125 µg/mL (≈ 0.0879 µM)
MIC ([16]; ATCC29213): 0.5 µg/mL (≈ 0.352 µM)
MIC [17]: 0.125 µg/mL (≈ 0.0879 µM)
MIC [23]: 0.5 µg/mL (≈ 0.352 µM)
MIC [24]: > 128 µg/mL

Compound: O=C(N[C@H](CO)[C@H](O)c1ccc([N+](=O)[O-])cc1)C(Cl)Cl [chloramphenicol]
resistance/sensitivity of E. faecium strain A28152 to the antibiotic [25]: sensitive

Compound: O=C(O)c1cn(C2CC2)c2cc(N3CCNCC3)c(F)cc2c1=O [ciprofloxacin]
resistance/sensitivity of E. faecium strain A28152 to the antibiotic [25]: resistant

Compound: CCC[C@@H]1C[C@@H](C(=O)N[C@@H]([C@H]2O[C@H](SC)[C@H](O)[C@@H](O)[C@H]2O)[C@H](C)Cl)N(C)C1 [clindamycin]
resistance/sensitivity of E. faecium strain A28152 to the antibiotic [25]: resistant

Compound: CC[C@H]1OC(=O)[C@H](C)[C@@H](O[C@H]2C[C@@](C)(OC)[C@@H](O)[C@H](C)O2)[C@H](C)[C@@H](O[C@@H]2O[C@H](C)C[C@H](N(C)C)[C@H]2O)[C@](C)(O)C[C@@H](C)C(=O)[C@H](C)[C@@H](O)[C@]1(C)O [erythromycin]
resistance/sensitivity of E. faecium strain A28152 to the antibiotic [25]: resistant

Compound: CO/C(C)=C1/NC(=O)[C@H]([C@@H](C)O)NC(=O)c2csc(n2)-c2cc(O)c(-c3nc(C(N)=O)cs3)nc2-c2csc(n2)[C@@H]2CSC(=O)c3[nH]c4cccc5c4c3CO[C@@H](C(NC(=O)c3csc1n3)c1nc(cs1)C(=O)N2)[C@@H](O[C@H]1C[C@](C)(O)[C@H](N(C)C)[C@H](C)O1)C(=O)OC5 [glycothiohexide-α]
antimicrobial activity against Gram-positive bacteria in vitro (Gram-positive bacteria [26]): potent antimicrobial activity

Compound: C=C(NC(=O)c1csc(-c2nc3c(cc2O)-c2nc(cs2)C(=O)NC(C(C)O)C(=O)N/C(=C\C)c2nc(cs2)C(=O)NC2CC(O)C(=O)OCc4cccc5[nH]c(c(C)c45)C(=O)SCC(NC(=O)c4csc2n4)c2nc-3cs2)n1)C(N)=O (centres unmarked) [nosiheptide]
antimicrobial activity against Gram-positive bacteria in vitro (Gram-positive bacteria [26]): potent antimicrobial activity

Compound: CC1(C)S[C@@H]2[C@H](NC(=O)Cc3ccccc3)C(=O)N2[C@H]1C(=O)O [penicillin G]
resistance/sensitivity of E. faecium strain A28152 to the antibiotic [25]: resistant

Compound: CO[C@H]1/C=C/O[C@@]2(C)Oc3c(C)c(O)c4c(O)c(c(/C=N/N5CCN(C)CC5)c(O)c4c3C2=O)NC(=O)/C(C)=C\C=C\[C@H](C)[C@H](O)[C@@H](C)[C@@H](O)[C@@H](C)[C@H](OC(C)=O)[C@@H]1C [rifampin]
resistance/sensitivity of E. faecium strain A28152 to the antibiotic [25]: resistant

Compound: [H]/N=C(/N)N[C@H]1[C@H](O)[C@@H](O)[C@H](O[C@@H]2O[C@@H](C)[C@](O)(C=O)[C@H]2O[C@@H]2O[C@@H](CO)[C@H](O)[C@@H](O)[C@@H]2NC)[C@@H](N/C(N)=N\[H])[C@@H]1O [streptomycin]
resistance/sensitivity of E. faecium strain A28152 to the antibiotic [25]: resistant

Compound: CN(C)C1C(=O)C(C(N)=O)=C(O)C2(O)C(=O)C3=C(O)c4c(O)cccc4C(C)(O)C3CC12 (centres unmarked) [tetracycline]
resistance/sensitivity of E. faecium strain A28152 to the antibiotic [25]: resistant

Compound: C=C(NC(=O)C(=C)NC(=O)c1csc(C2=N[C@@H]3c4csc(n4)[C@H]4NC(=O)c5csc(n5)[C@H]([C@](C)(O)[C@@H](C)O)NC(=O)[C@H]5CSC(=N5)/C(=C/C)NC(=O)[C@H]([C@@H](C)O)NC(=O)c5csc(n5)[C@]3(CC2)NC(=O)[C@H](C)NC(=O)C(=C)NC(=O)[C@H](C)NC(=O)[C@H]([C@@H](C)CC)N[C@@H]2C=Cc3c([C@H](C)O)cc(nc3[C@H]2O)C(=O)O[C@@H]4C)n1)C(N)=O [thiostrepton]
antimicrobial activity against Gram-positive bacteria in vitro (Gram-positive bacteria [26]): potent antimicrobial activity

Compound: CN[C@H](CC(C)C)C(=O)N[C@H]1C(=O)N[C@@H](CC(N)=O)C(=O)N[C@H]2C(=O)N[C@H]3C(=O)N[C@H](C(=O)N[C@H](C(=O)O)c4cc(O)cc(O)c4-c4cc3ccc4O)[C@H](O)c3ccc(c(Cl)c3)Oc3cc2cc(c3O[C@@H]2O[C@H](CO)[C@@H](O)[C@H](O)[C@H]2O[C@H]2C[C@](C)(N)[C@H](O)[C@H](C)O2)Oc2ccc(cc2Cl)[C@H]1O [vancomycin]
resistance/sensitivity of E. faecium strain A28152 to the antibiotic [25]: resistant

Compound: gentamicin
resistance/sensitivity of E. faecium strain A28152 to the antibiotic [25]: resistant

Compound: teicoplanin
resistance/sensitivity of E. faecium strain A28152 to the antibiotic [25]: resistant
